Test results as given in US20250127857A1, “A COMPOSITION COMPRISING IL-36 AND/OR IL-18 FOR USE IN TREATING OCULAR DISORDERS” (THE PROVOST, FELLOWS, FOUNDATION SCHOLARS, & THE OTHER …, priority 2021, published 2025).

Assays:
[1] = test system: laser induced CNV in WT mice; assay: Mesenchymal cell infiltration/activation after laser induced CNV, 3 days; type: in vivo, mouse
Method: (§1) FIG. 22 illustrates increased mesenchymal cell infiltration/activation in animals injected with IL-18 intrperitoneally, wherein WT mice underwent laser induced CNV and were injected IP with IL-18 (100 ug/kg), wherein 3 days later eyes were enucleated, flatmounts were stained with F4/80, vimentin and isolectin and imaged by confocal microscopy;
as §1, with “23” for “22”, “intra-vitreally,” for “intrperitoneally,”, “intravitreally” for “IP”, “(0.3ng/eye),” for “(100 ug/kg),”

VEGF [2] = assay: VEGF secretion by primary human foetal RPE (hfRPE) cells; type: cell-based; conditions: IL-18 1000 ng/ml, 1-72 hours
Method: (§2) FIG. 14 illustrates IL-18 can inhibit VEGF secretion in vivo and in vitro, wherein JR5558 mice at 3 weeks (A) were injected (i.p.) with saline (0 μg/kg) or IL-18 (100 μg/kg) on 4 consecutive days (day 1-4), wherein retinas were isolated on day 8 and VEGF concentration in protein lysates was determined using an appropriate ELISA, wherein data are presented as mean±SEM (n=4-5 animals per each treatment group) and expressed as pg of VEGF per mg of total retinal protein as measured by the BCA assay, *p<0.05 by one-way ANOVA with Tukey post test compared to saline controls; (B) is primary human foetal RPE (hfRPE) cells were treated with control medium (0 ng/ml) or a single dose of IL-18 (1000 ng/ml) for 1 to 72 hours, wherein VEGF concentration in the cell-free supernatants was measured at each time point, wherein rate of VEGF secretion was calculated from the slope of linear regression of VEGF concentration (pg/ml) against time (hours) (C), wherein data are presented as mean±SEM and represent a single experiment carried out in triplicate *p<0.05, ***p<0.001 by Student's t test compared to control at each time point;

[3] = test system: primary human foetal RPE (hfRPE) cells; assay: Scratch assay in hfRPE cultures; type: cell-based; conditions: IL-18 10-1000 ng/ml, up to 18 hours
Method: FIG. 19 illustrates IL-18 induces fibroblast-like cells to migrate to close a wound created in human Retinal Pigment Epithelium monolayer in vitro, wherein primary human foetal RPE (hfRPE) cells were treated with control medium (0 ng/ml) or increasing doses of IL-18 (10-1000 ng/ml) immediately after making a scratch through the centre of the well, wherein microscopy images were acquired at the same location at baseline (0 hours) and then every 2 hours until 18 hours, representative images for each treatment group are shown, wherein cells were stained with DAPI to show the nuclei, and phalloidin to show F-actin, wherein Brightfield images (phase) are also shown;

VEGF [4] = assay: VEGF in HOCFs treated with IL-18; type: cell-based, human; conditions: IL-18 100 ng/ml over 24 h
Method: FIG. 20 illustrates IL-18 activates human ocular choroidal fibroblasts and inhibits VEGF secretion, wherein (A) is human ocular choroidal fibroblast (HOCFs) treated with IL-18 at increasing doses for 8 h, wherein cells were fixed and stained with antibody targeting intermediate filament vimentin (red), Hoechst (blue) and phalloidin (green); (B) is HOCFs treated with IL-18 (100 ng/ml) over 60 mins and immunoblotted for phospho-ERK and phospo-p65 with B-actin and GAPDH as controls; (C) is HOCFs treated with IL-18 (100 ng/ml) over 24 h as indicated, wherein cells were analysed for VEGF expression by qPCR (D) is HOCFs treated with 10, 100 or 1000 ng/ml of IL-18 as indicated over 48 h and cell death was analysed by LDH assay;

VEGFR2 = assay: qPCR of VEGFR levels in HRMEC treated with IL-18; type: cell-based, human; conditions: IL-18 100 ng/ml over timepoints
Method: FIG. 15 illustrates IL-18 reduces expression of VEGFR2 specifically in Human retinal endothelial cells (HRMECs), wherein HRMECs were treated with IL-18 (100 ng/ml) over timepoints indicated, wherein cells lysates were prepared for RNA isolation and underwent qPCR and ddCt method to assess relative expression of VEGFR levels, using B-actin as reference control, wherein RT-PCR data are means±SEM of n=3 independent experiments;
Confluent HRMECs were stimulated with 50 or 100 ng/ml of recombinant human IL-18 (SB-485232; GSK); 10 ng/ml of human IL-1α (R&D systems) or 50 ng/ml of human VEGF165 (Peprotech) diluted in complete growth medium, with complete growth media added to wells alone for ‘no treatment’. […]
All RT-PCR assays were carried out using the SensiFAST SYBR Hi-ROX Kit (Bioline) with primers designed using Primer-BLAST (NCBI). […] Data were analysed using the QuantStudio™ Design & Analysis software (Applied Biosystems) and using the comparative Ct (ΔΔCt) method where test samples were normalised to endogenous control (β-Actin) followed by normalising the ΔCt of test samples to sample control (untreated sample), then calculating 2^−ΔΔCt to find the relative fold change of test samples over sample control.

VEGF [5] = assay: Retinal VEGF ELISA in JR5558 mice; type: in vivo, mouse; conditions: JR5558 mice 3 weeks old, 100 μg/kg i.p. on 4 consecutive days, retinas isolated day 8
Method: as §2

[6] = test system: laser induced CNV in WT mice; assay: Fibrovascular scarring after laser induced CNV, 14 days; type: in vivo, mouse; conditions: IL-18 0.3ng/eye intravitreally, vs vehicle control
Method: FIG. 24 illustrates IL-18 reduces the area of fibrovascular scarring, wherein WT mice underwent laser induced CNV and were injected intravitreally with IL-18 (0.3ng/eye), wherein 14 days later eyes were enucleated, flatmounts were stained with F4/80, vimentin and isolectin and imaged by confocal microscopy; and […]

Substance: IL-18: recombinant human IL-18 (SB-485232; GSK)
- vimentin staining at CNV lesion ([1]; IL-18 0.3ng/eye intravitreally): driving vimentin positive cells to encapsulate the neovascular lesion
- vimentin staining at CNV lesion ([1]; IL-18 100 ug/kg intra-peritoneally): increased vimentin
- VEGF concentration in cell-free supernatants (VEGF [2]): decreased VEGF concentration at (almost) all time points examined
- overall rate of VEGF secretion (VEGF [2]): significantly slowed down the overall rate of VEGF secretion
- cell migration into wound in hfRPE monolayer [3]: appearance of fibroblast-like cells that migrated across the wound
- baseline secretion of VEGF from HOCFs (VEGF [4]): strongly reduces the baseline secretion of VEGF
- VEGFR2 expression (VEGFR2): specifically reduces VEGFR2
- VEGF levels in the retinas (VEGF [5]): significantly decreased
- vimentin positive staining (area of fibrovascular scarring) [6]: less vimentin positive staining
